From a compilation of properties of binary mixtures (doi:10.1021/acs.jpcb.5b11900)

Experiment: xn = mol fraction of the nth substance listed
Conditions: 101 kPa

CC[NH2+]CC.O=[N+]([O-])[O-] + CC[NH3+].O=[N+]([O-])[O-]
Conditions | electrical conductivity, 293.15 K [S/m] | electrical conductivity, 298.15 K [S/m] | electrical conductivity, 303.15 K [S/m] | electrical conductivity, 308.15 K [S/m] | electrical conductivity, 313.15 K [S/m] | viscosity, 293.15 K [mPa·s] | viscosity, 298.15 K [mPa·s] | viscosity, 303.15 K [mPa·s] | viscosity, 308.15 K [mPa·s] | viscosity, 313.15 K [mPa·s]
x1 = 0.0499 | 1.8 | 2.1 | 2.43 | – | 3.16 | 44.4 | 37.2 | 31.5 | – | 23.2
x1 = 0.0998 | – | 2.02 | 2.34 | 2.69 | 3.06 | – | 36.2 | 30.6 | 26.2 | 22.4
x1 = 0.1499 | 1.69 | 1.99 | 2.31 | 2.64 | 3.01 | 45.4 | 37.9 | 31.9 | 27.3 | 23.4
x1 = 0.1999 | 1.55 | 1.83 | 2.12 | 2.44 | – | 49.7 | 41.3 | 34.7 | 29.4 | –
x1 = 0.2501 | 1.59 | – | 2.18 | 2.5 | – | 46 | – | 32.2 | 27.4 | –
x1 = 0.2998 | 1.55 | 1.87 | 2.18 | 2.5 | – | 45.6 | 37.9 | 31.9 | 27.2 | –
x1 = 0.3501 | – | 1.72 | 2 | 2.3 | – | – | 41.2 | 34.5 | 29.2 | –
